Values after ≈ are worked out from the molar mass of the structure shown. Values joined by “and” are separate entries in the source; they are usually repeats but may differ in a detail not shown here. Identical values can stand only once. Marks after values point to notes of the source that are not given here.
Test system: Caco-2 cells
Assay: Neutral Red uptake assay (NRU) cytotoxicity
Assay type: cell-based, human
Details: Caco-2, precursor itself
Procedure: The cytotoxicity of precursors and products was tested using the Neutral Red uptake assay (NRU) with Caco-2 cells (Table 5). The EU classifies a chemical to be not environmentally toxic if the IC50 is above 0.1 mg/mL, which was the case for the selected products as measured with the NRU test. […] In the case of the dyes obtained after transformation of AHBS and ANS by FF25, AB123, or TV7, all the samples had IC50's of more than 1 mg/mL and were essentially non-toxic. In the case of control cultures, growing without the addition of precursors, only the sample of TV7 was slightly toxic (IC50 = 0.85 mg/mL) while other control cultures (AB123, CU139, and FF25) had IC50's higher than one (Table 5).
The toxicity of precursors and products was evaluated using the Neutral Red uptake assay (NRU) with Caco-2 human intestinal cell-line as an in vitro test system. Samples of products were lyophilized and then dissolved in dimethyl sulfoxide (DMSO) to a stock solution concentration of 100 mg/mL. The cytotoxicity of dyes was expressed as the half-maximal inhibitory concentration (IC50 - mg/mL), where values higher than 1 represented low cytotoxicity, values within the range from 0.1 to 1 represented medium cytotoxicity, and values below 0.1 represented high cytotoxicity of samples [10]. Additionally, the cytotoxicity of the fungal liquid culture without precursors and products was checked as a control.

SMILES	IC50 Precursor [µg/mL]
Oc1ccc2ccc(O)cc2c1 [DHN, 2,7-dihydroxynaphtalene]	107 ± 3.6 (≈ 668 µM)

Same assay, conditions: Homo sapiens, Caco-2, precursor itself

SMILES	IC50 [µg/mL]
Nc1ncccc1O [Precursor 2A3HP, 2-amino-3-hydroxypyridine]	55 ± 28 (≈ 499 µM)
Nc1cccc2c(S(=O)(=O)O)cccc12 [ANS, 5-amino-1-naphthalenesulfonic acid]	> 1000
Nc1ccc(N)c(S(=O)(=O)O)c1 [2,5DABS, 2,5-diaminobenzenesulfonic acid]	> 1000
Nc1cc(S(=O)(=O)O)ccc1O [AHBS, 3-amino-4-hydroxybenzenesulfonic acid]	> 1000

Test system: Trametes versicolor (TV7)
Assay: Agar-plate screening test, transformation of precursors into coloured products
Assay type: cell-based
Details: strain TV7, 1 mM precursor
Procedure: (§1) Agar-plate screening of several different precursors, benzoic and naphthalene derivatives was performed using fungal biomass as a biocatalyst (Table 1). Among these precursors were chemicals consisting of amino-, hydroxy-, nitro-, sulfonic- and carboxy- substituents. The ability of the fungi to grow in the presence of the precursors and to transform the latter into coloured products was monitored during 14 days of the experiment. […] In order to check the autoxidation ability of the precursors, the appearance of their coloured products without the presence of actively growing mycelium was monitored (control samples).
(§2) The colour intensity of the products obtained during the biotransformation of the precursors by fungi was analyzed after 7 days of cultivation. This intensity was expressed by different numbers; the value 0 expressed a lack of colour and the values in the range from 1 to 4 expressed a rising intensity of colour.
(§3) The agar-plate screening test was performed using sterile 24-well tissue culture plates (16.2 mm in diameter). Each well contained 2.5 mL (± 0.2 mL) of sterile GPA medium with the addition of 2% agar and a precursor at a concentration of 1 mM. Each well was inoculated with one agar plug (3 mm in diameter) from the leading edge of colony, which had been maintained on MEA for at least 7 days at 25°C. The plates were incubated at 25°C, and the ability of the fungi to grow and transform the precursors into coloured products was monitored over the next 14 days.

SMILES	growth of mycelium in the presence of precursor
O.O.O.O.Oc1ccccc1-c1ccccc1.[Na] [Precursor 2PP, 2-phenylphenol sodium salt tetrahydrate]	unable to grow

Test system: Cerrena unicolor (CU139)
Assay: as above
Assay type: cell-based
Details: strain CU139, 1 mM precursor
Procedure: as §1, §2, §3

SMILES	growth of mycelium in the presence of precursor
O.O.O.O.Oc1ccccc1-c1ccccc1.[Na] [Precursor 2PP, 2-phenylphenol sodium salt tetrahydrate]	unable to grow

Test system: Abortiporus biennis (AB123)
Assay: as above
Assay type: cell-based
Details: strain AB123, 1 mM precursor
Procedure: as §1, §2, §3

SMILES	growth of mycelium in the presence of precursor
O.O.O.O.Oc1ccccc1-c1ccccc1.[Na] [Precursor 2PP, 2-phenylphenol sodium salt tetrahydrate]	unable to grow

Test system: Fomes fomentarius (FF25)
Assay: as above
Assay type: cell-based
Details: strain FF25, 1 mM precursor
Procedure: as §1, §2, §3

SMILES	growth of mycelium in the presence of precursor
O.O.O.O.Oc1ccccc1-c1ccccc1.[Na] [Precursor 2PP, 2-phenylphenol sodium salt tetrahydrate]	unable to grow

Test system: not listed separately
Assay: Autoxidation of precursors on agar plates without actively growing mycelium (control samples); as to Precursors autoxidation: key: - no; -/+ - slightly; + high; ++ very high
Assay type: physicochemical
Details: 1 mM precursor in GPA agar, control samples without mycelium
Procedure: as §1, §3

SMILES	autoxidation (in words)
Nc1ccc2cc(S(=O)(=O)O)cc(O)c2c1 [Precursor 6AHNS, 6-amino-4-hydroxy-2-naphthalenesulfonic acid]	very slight autoxidation
Nc1ncccc1O [Precursor 2A3HP, 2-amino-3-hydroxypyridine]	very slight autoxidation
Nc1cc(S(=O)(=O)O)cc([N+](=O)[O-])c1O [AHNBS, 3-amino-4-hydroxy-5-nitrobenzenesulfonic acid]	very rapid and very intensive autoxidation
Nc1ccc(N)c(S(=O)(=O)O)c1 [2,5DABS, 2,5-diaminobenzenesulfonic acid]	very slight autoxidation
Oc1ccc2ccc(O)cc2c1 [DHN, 2,7-dihydroxynaphtalene]	very slight autoxidation
Nc1c(O)cc(S(=O)(=O)O)c2ccccc12 [Precursor 4AHNS, 4-amino-3-hydroxy-1-naphthalenesulfonic acid]	very rapid and very intensive autoxidation

Same assay, conditions: 1 mM precursor in GPA agar, without mycelium

SMILES	Precursors autoxidation
Oc1ccccc1O [Cat, 1,2-dihydroxybenzene]	-
Nc1ccccc1S(=O)(=O)O [Precursor A2SA, aniline-2-sulfonic acid]	-
Nc1ccc2cc(S(=O)(=O)O)cc(O)c2c1 [Precursor 6AHNS, 6-amino-4-hydroxy-2-naphthalenesulfonic acid]	-/+
Nc1ncccc1O [Precursor 2A3HP, 2-amino-3-hydroxypyridine]	-/+
Nc1ccc(S(=O)(=O)O)c(N)c1 [2,4DABS, 2,4-diaminobenzenesulfonic acid]	-
O.O.O.O.Oc1ccccc1-c1ccccc1.[Na] [Precursor 2PP, 2-phenylphenol sodium salt tetrahydrate]	-
Nc1cccc2c(S(=O)(=O)O)cccc12 [ANS, 5-amino-1-naphthalenesulfonic acid]	-
Nc1cc(S(=O)(=O)O)cc([N+](=O)[O-])c1O [AHNBS, 3-amino-4-hydroxy-5-nitrobenzenesulfonic acid]	+
Nc1ccc(N)c(S(=O)(=O)O)c1 [2,5DABS, 2,5-diaminobenzenesulfonic acid]	-/+
O=S(=O)([O-])c1ccc2cc(O)ccc2c1.[Na+] [HNSA, 6-hydroxy-2-naphthalenesulfonic acid sodium salt]	-
O=Cc1ccccc1S(=O)(=O)[O-].[Na+] [Precursor 2FBSA, 2-formylbenzenesulfonic acid sodium salt]	-
Oc1ccc2ccc(O)cc2c1 [DHN, 2,7-dihydroxynaphtalene]	-/+
O=S(=O)(O)c1cc(O)c(O)c(S(=O)(=O)O)c1 [dHBdSA, 4,5-dihydroxy-1,3-benzene-disulfonic acid]	-
O.O=C(O)c1cc(S(=O)(=O)O)ccc1O [Precursor 5SSA, 5-sulfosalicylic acid hydrate]	-
Nc1cc(S(=O)(=O)O)ccc1O [AHBS, 3-amino-4-hydroxybenzenesulfonic acid]	-
Nc1cccc(S(=O)(=O)O)c1 [Precursor 3ABS, 3-aminobenzenesulfonic acid]	-
Nc1c(O)cc(S(=O)(=O)O)c2ccccc12 [Precursor 4AHNS, 4-amino-3-hydroxy-1-naphthalenesulfonic acid]	++

Test system: not listed separately
Assay: Cyclic voltammetry of precursors (oxidation and reduction potentials)
Assay type: physicochemical
Details: 1 mM precursor, 100 mM Na-tartrate buffer pH 4.5, graphite working electrode, Ag/AgCl reference, scan rate 25 mV/s
Procedure: To find correlations between the degree of precursor transformation by fungi and its oxidation potential, cyclic voltammetry (CV) was done. All the tested compounds were characterized using CV at a graphite working electrode at pH 4.5.
Cyclic voltammetry of the tested precursors was performed using an MTM-Anko apparatus type M161 (Poland) equipped with a graphite working electrode, a platinum counter electrode, and an Ag/AgCl reference electrode. The precursors were dissolved using 100 mM Na-tartrate buffer, pH 4.5, to 1 mM final concentration. […] All potentials in this work were referred to the Ag/AgCl reference electrode.

SMILES	Eo (oxidation potential)
O=S(=O)(O)c1cc(O)c(O)c(S(=O)(=O)O)c1 [dHBdSA, 4,5-dihydroxy-1,3-benzene-disulfonic acid]	914^b mV

Same assay, conditions: 1 mM precursor, 100 mM Na-tartrate buffer pH 4.5, graphite working electrode, Ag/AgCl reference, scan rate 50 mV/s

SMILES	Eo (oxidation potential) [mV]	Er (reduction potential)
Oc1ccccc1O [Cat, 1,2-dihydroxybenzene]	548	285 mV
Nc1ccccc1S(=O)(=O)O [Precursor A2SA, aniline-2-sulfonic acid]	1013	-0.5 mV
Nc1ccc2cc(S(=O)(=O)O)cc(O)c2c1 [Precursor 6AHNS, 6-amino-4-hydroxy-2-naphthalenesulfonic acid]	499	
Nc1ncccc1O [Precursor 2A3HP, 2-amino-3-hydroxypyridine]	647	
Nc1ccc(S(=O)(=O)O)c(N)c1 [2,4DABS, 2,4-diaminobenzenesulfonic acid]	818	
O.O.O.O.Oc1ccccc1-c1ccccc1.[Na] [Precursor 2PP, 2-phenylphenol sodium salt tetrahydrate]	790	
Nc1cccc2c(S(=O)(=O)O)cccc12 [ANS, 5-amino-1-naphthalenesulfonic acid]	680	
Nc1cc(S(=O)(=O)O)cc([N+](=O)[O-])c1O [AHNBS, 3-amino-4-hydroxy-5-nitrobenzenesulfonic acid]	579	-92 mV
Nc1ccc(N)c(S(=O)(=O)O)c1 [2,5DABS, 2,5-diaminobenzenesulfonic acid]	433	-356 mV and -356^a mV
O=S(=O)([O-])c1ccc2cc(O)ccc2c1.[Na+] [HNSA, 6-hydroxy-2-naphthalenesulfonic acid sodium salt]	893	-144 mV
Oc1ccc2ccc(O)cc2c1 [DHN, 2,7-dihydroxynaphtalene]	672	
Nc1cc(S(=O)(=O)O)ccc1O [AHBS, 3-amino-4-hydroxybenzenesulfonic acid]	518	-103 mV
Nc1cccc(S(=O)(=O)O)c1 [Precursor 3ABS, 3-aminobenzenesulfonic acid]	968	5.4^a mV
Nc1c(O)cc(S(=O)(=O)O)c2ccccc12 [Precursor 4AHNS, 4-amino-3-hydroxy-1-naphthalenesulfonic acid]	251	

Same assay, conditions: pH 4.5, scan rates of 25 to 200 mV/s

SMILES	oxidation and reduction peaks
O=Cc1ccccc1S(=O)(=O)[O-].[Na+] [Precursor 2FBSA, 2-formylbenzenesulfonic acid sodium salt]	did not exhibit
O.O=C(O)c1cc(S(=O)(=O)O)ccc1O [Precursor 5SSA, 5-sulfosalicylic acid hydrate]	did not exhibit

Source: PMC2913955, “Whole-cell fungal transformation of precursors into dyes” (Microbial Cell Factories, 2010)
